From patent US11230538B2, “Herbicides” (SYNGENTA PARTICIPATIONS AG, priority 2016, dated 2022)

Experiments:
Type in all cases: in vivo
Lolium perenne (LOLPE) [1] = test: B2 Post-emergence herbicidal activity; settings: post-emergence application, rate 1000 g/ha, evaluated after 13 days
Procedure: (§1) Seeds of a variety of test species were sown in standard soil in pots: Triticum aestivium (TRZAW), Avena fatua (AVEFA), Alopecurus myosuroides (ALOMY), Echinochloa crus-galli (ECHCG), Lolium perenne (LOLPE), Zea Mays (ZEAMX), Abutilon theophrasti (ABUTH), Amaranthus retroflexus (AMARE) and Setaria fabenri (SETFA). After 8 days cultivation (post-emergence) under controlled conditions in a glasshouse (at 24/16° C., day/night; 14 hours light; 65% humidity), the plants were sprayed with an aqueous spray solution derived from the formulation of the technical active ingredient in acetone I water (50:50) solution containing 0.5% Tween 20 (polyoxyethelyene sorbitan monolaurate, CAS RN 9005-64-5). The test plants were then grown in a glasshouse under controlled conditions (at 24/16° C., day/night; 14 hours light; 65% humidity) and watered twice daily. After 13 days, the test was evaluated (5=total damage to plant; 0=no damage to plant).

Avena fatua (AVEFA) [2] = test: B2 Post-emergence herbicidal activity; settings: post-emergence application, rate 1000 g/ha, evaluated after 13 days
Procedure: as §1

Avena fatua (AVEFA) [3] = test: B1 Pre-emergence herbicidal activity; set-up: key: 5=total damage to plant; 0=no damage to plant; settings: pre-emergence application, rate 1000 g/ha, evaluated after 13 days
Summary of the method: (§2)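 Damage was rated visually on a 0–5 scale (0 no damage, 5 total damage) 13 days after treatment. Soil-sown seeds had been sprayed one day after sowing with an aqueous acetone/water (50:50) solution containing 0.5% Tween 20, then kept in a glasshouse at 24/16 °C, 14 h light, 65% humidity.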

[4] = system: Triticum aestivium (TRZAW); test: B1 Pre-emergence herbicidal activity; set-up: key: 5=total damage to plant; 0=no damage to plant; settings: pre-emergence application, rate 1000 g/ha, evaluated after 13 days
Summary of the method: as §2

[5] = system: Alopecurus myosuroides (ALOMY); test: B1 Pre-emergence herbicidal activity; set-up: key: 5=total damage to plant; 0=no damage to plant; settings: pre-emergence application, rate 1000 g/ha, evaluated after 13 days
Summary of the method: as §2

Lolium perenne (LOLPE) [6] = test: B1 Pre-emergence herbicidal activity; settings: pre-emergence application, rate 1000 g/ha, evaluated after 13 days
Summary of the method: as §2

[7] = system: Echinochloa crus-galli (ECHCG); test: B1 Pre-emergence herbicidal activity; set-up: key to Pre-emergence herbicidal activity, ECHCG (damage score 0-5): 5=total damage to plant; 0=no damage to plant; settings: pre-emergence application, rate 1000 g/ha, evaluated after 13 days
Summary of the method: as §2

Setaria fabenr (SETFA) = test: B1 Pre-emergence herbicidal activity; set-up: key to Pre-emergence herbicidal activity, SETFA (damage score 0-5): 5=total damage to plant; 0=no damage to plant; settings: pre-emergence application, rate 1000 g/ha, evaluated after 13 days
Summary of the method: as §2

[8] = system: Triticum aestivium (TRZAW); test: B2 Post-emergence herbicidal activity; set-up: key: 5=total damage to plant; 0=no damage to plant; settings: post-emergence application, rate 1000 g/ha, evaluated after 13 days
Summary of the method: (§3)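 Visual damage score (0 = none, 5 = total) taken 13 days after treatment. Seedlings had been cultivated 8 days in pots of standard soil before being sprayed with an aqueous solution of compound in acetone/water (50:50) containing 0.5% Tween 20.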

[9] = system: Alopecurus myosuroides (ALOMY); test: B2 Post-emergence herbicidal activity; set-up: key: 5=total damage to plant; 0=no damage to plant; settings: post-emergence application, rate 1000 g/ha, evaluated after 13 days
Summary of the method: as §3

Setaria fabenri (SETFA) = test: B2 Post-emergence herbicidal activity; set-up: key: 5=total damage to plant; 0=no damage to plant; settings: post-emergence application, rate 1000 g/ha, evaluated after 13 days
Summary of the method: as §3

[10] = system: Echinochloa crus-galli (ECHCG); test: B2 Post-emergence herbicidal activity; set-up: key to Post-emergence herbicidal activity, ECHCG (damage score 0-5): 5=total damage to plant; 0=no damage to plant; settings: post-emergence application, rate 1000 g/ha, evaluated after 13 days
Summary of the method: as §3

| SMILES | Post-emergence herbicidal activity, LOLPE (damage score 0-5) (Lolium perenne (LOLPE) [1]) | Post-emergence herbicidal activity, AVEFA (damage score 0-5) (Avena fatua (AVEFA) [2]) | Pre-emergence herbicidal activity, AVEFA (damage score 0-5) (Avena fatua (AVEFA) [3]) | Pre-emergence herbicidal activity, TRAZW (damage score 0-5) [4] | Pre-emergence herbicidal activity, ALOMY (damage score 0-5) [5] | Pre-emergence herbicidal activity, LOLPE (damage score 0-5) (Lolium perenne (LOLPE) [6]) | Pre-emergence herbicidal activity, ECHCG (damage score 0-5) [7] | Pre-emergence herbicidal activity, SETFA (damage score 0-5) (Setaria fabenr (SETFA)) | Post-emergence herbicidal activity, TRAZW (damage score 0-5) [8] | Post-emergence herbicidal activity, ALOMY (damage score 0-5) [9] | Post-emergence herbicidal activity, SETFA (damage score 0-5) (Setaria fabenri (SETFA)) | Post-emergence herbicidal activity, ECHCG (damage score 0-5) [10] |
| --- | --- | --- | --- | --- | --- | --- | --- | --- | --- | --- | --- | --- |
| O=C(Nc1ccc(-c2cncc(F)c2)nc1C(F)(F)F)c1ccccc1 [Compound C14] | 4 | 4 | 1 | 0 | 2 | 2 | 5 | 4 | 1 | 1 | 5 | 5 |
| CCC(=O)N(C)c1ccc(-c2cncc(F)c2)nc1C(F)(F)F [Compound C15, N-[6-(5-fluoro-3-pyridyl)-2-(trifluoromethyl)-3-pyridyl]-N-methyl-propanamide] | 3 | 3 | 0 | 0 | 0 | 1 | 5 | 5 | 1 | 1 | 5 | 5 |
| C=CCN(C(=O)C(C)C)c1ccc(-c2cncc(F)c2)nc1C(F)(F)F [Compound C16] | 3 | 4 | 1 | 0 | 0 | 2 | 4 | 5 | 1 | 1 | 5 | 5 |
| C/C=C/C(=O)Nc1ccc(-c2cncc(F)c2)nc1C(F)(F)F [Compound C23] | 3 | 3 | 3 | 1 | 1 | 1 | 5 | 5 | 0 | 0 | 5 | 5 |
| COCCC(=O)Nc1ccc(-c2cncc(F)c2)nc1C(F)(F)F [Compound C24] | 4 | 4 | 4 | 0 | 1 | 1 | 4 | 5 | 1 | 1 | 5 | 5 |
| O=C(Nc1ccc(-c2cncc(F)c2)nc1C(F)(F)F)C(Cl)Cl [Compound C26] | 4 | 4 | 2 | 0 | 0 | 1 | 5 | 5 | 1 | 0 | 5 | 5 |
| COCC(=O)Nc1ccc(-c2cncc(F)c2)nc1C(F)(F)F [Compound C27] | 3 | 4 | 3 | 0 | 0 | 1 | 5 | 5 | 1 | 1 | 5 | 5 |
| O=C(COc1ccccc1)Nc1ccc(-c2cncc(F)c2)nc1C(F)(F)F [Compound C28] | 3 | 4 | 3 | 0 | 0 | 1 | 4 | 4 | 0 | 0 | 5 | 5 |
| O=C(Nc1ccc(-c2cncc(F)c2)nc1C(F)(F)F)C(Cl)(Cl)Cl [Compound C29] | 3 | 4 | 4 | 0 | 0 | 1 | 5 | 5 | 0 | 0 | 5 | 5 |
